Data on six molecules can be found in US5491159A, “2-(3,5-di-tert-butyl-4-hydroxy-phenyl)-oxazoles as anti-atherosclerotic agents” (American Home Products Corporation, priority 1994, dated 1996).

One assay relates to rabbit or monkey LDL. Description: Inhibition of Copper Ion Mediated Oxidation of Low Density Lipoprotein (in vitro). Conditions: Cu^+2, rabbit or monkey LDL, 37° C., 90 minutes, absorbance at 532 nm; non-linear regression log [I] vs. % inhibition. The class given is biochemical. The method, then:
In this in vitro assay, the inhibition of Cu^+2 mediated oxidation of rabbit or monkey LDL by an invention compound is determined spectrophotometrically. Oxidation of LDL results in the formation of LDL-diene which absorbs light at 532 nm. Inhibition of oxidation of LDL leads to a decrease in absorbance at 532 nm.
Rabbit or monkey LDL is prepared according to the procedures of Havel, Eder and Gragdon, "The Distribution and Chemical Composition of Ultracentrifugally Separated Lipoproteins in Human Serum,: J. Clin. Invest. 34, 1345-1353 (1955) and Parhtasarathy, Wieland and Steriberg, "A Role for Endothelial Cell Lipoxygenase in the Oxidative Modification of Low Density Lipoprotein, " Proc. Natl. Acad. Sci. USA 86, 1046-1050 (1989). Test compound solutions are prepared by dissolving the invention compounds in ethanol at concentrations up to 248 μM. The medium used is Dulbecco's phosphate buffered saline containing 0.5 mg/ml bovine serum albumin. For standards, 0 to 10 μl of an aqueous solution of 1,1,3,3-tetraethoxypropane (1 μmol/ml H2 O) in 4.1 ml of medium is used.
Test compound solution (100 μl) is added to 4 ml of medium in incubation tubes. To each tube is added 10 μl of LDL solution and 25 μl of aqueous copper sulfate solution (1.32 mg/ml H2 O). The tubes are incubated at 37° C. for 90 minutes and the oxidation reaction quenched by addition of 1 ml of thiobarbituric acid solution (0.67% in 50% acetic acid). The tubes are heated at 90° C. for 1 hour, then chilled in an ice bath and the chromophore extracted into 2 ml of n-butanol. Absorbence is read at 532 nm and the results are reported as nmols of malondialdehyde equivalents.
Significant differences (p<0.05) are determined by the Dunnett T-test or by the Student-Newman Keuls Test for significant differences between means. The assay is conducted using several concentrations [I] of the inhibitor test compounds. The LDL solution concentrations at different experiments were either 1.5 mg/ml, 2.5 mg/ml or 10.3 mg/ml. The IC50 is determined by non-linear regression, plotting log [I] vs. % inhibition. (Reference: K. Yagi, Biochemical Medicine 15, 212-216 (1976)).

The subject of assay [1] is LDL. The note with it: cited from earlier work.
Assay [2] deals with LDL. The note with it: cited from earlier work. The source holds these as a separate data set.
A further assay concerns WHHL rabbits. Conditions: cited from earlier work.

What is called IC50 is the point on the concentration scale where inhibition reaches its midpoint. In the assay on rabbit or monkey LDL, `COC(=O)Cc1nc(-c2cc(C(C)(C)C)c(O)c(C(C)(C)C)c2)oc1C` [Example 1, [2-(3,5-di-tert-butyl-4-hydroxyphenyl)-5-methyloxazol-4-yl]-acetic acid methyl ester] showed an IC50 of 70 nM.

Consider `Cc1oc(-c2cc(C(C)(C)C)c(O)c(C(C)(C)C)c2)nc1CC(=O)O` [Example 2, [2-(3,5-di-tert-butyl-4-hydroxyphenyl)-5-methyloxazol-4-yl]-acetic acid], for which, in the assay with rabbit or monkey LDL, the IC50 was 160 nM.

`CCOC(=O)Cc1nc(-c2cc(C(C)(C)C)c(O)c(C(C)(C)C)c2)oc1C` [Example 3, [2-(3,5-di-tert-butyl-4-hydroxyphenyl)-5-methyloxazol-4-yl]-acetic acid ethyl ester] returned an IC50 in the assay on rabbit or monkey LDL of 270 nM.

Regarding `COC(=O)Cc1coc(-c2cc(C(C)(C)C)c(O)c(C(C)(C)C)c2)n1` [Example 4, [2-(3,5-di-tert-butyl-4-hydroxyphenyl)-oxazol-4-yl]-acetic acid methyl ester], in the assay on rabbit or monkey LDL, the midpoint of inhibition, the IC50, lay at 250 nM.

In the assay with rabbit or monkey LDL, `COC(=O)NC(=O)Cc1nc(-c2cc(C(C)(C)C)c(O)c(C(C)(C)C)c2)oc1C` [Example 5, {2-[2-(3,5-di-tert-butyl-4-hydroxyphenyl)-5-methyloxazol-4-yl]acetyl}carbamic acid methyl ester] showed an IC50 of 230 nM.

`CC(C)(Sc1cc(C(C)(C)C)c(O)c(C(C)(C)C)c1)Sc1cc(C(C)(C)C)c(O)c(C(C)(C)C)c1` [probucol] came in with an IC50 in the assay on rabbit or monkey LDL of 270 nM. For the same molecule, the “inhibition of cell mediated oxidative modification of LDL (in words)” value with LDL [1] is “inhibits both cell mediated and Cu^+2 mediated oxidative modification of LDL”. Further, in the assay on LDL [2], the “inhibition of Cu^+2 mediated oxidative modification of LDL (in words)” value was “inhibits both cell mediated and Cu^+2 mediated oxidative modification of LDL”. Also, the “inhibition of the formation of atherosclerotic lesions (in words)” value in the assay with WHHL rabbits is “inhibit the formation of atherosclerotic lesions in WHHL rabbits”.
